Experimental data published in ChEMBL document CHEMBL1201862, “PubChem BioAssay data set” (2004).
Calls of active or inactive are those of the source. Rule as the data show it: actives have a measured IC50 and inactives only a lower limit.

Molecular target: Envelope glycoprotein gp160 (Human immunodeficiency virus 1, UniProt Q6QLK5)
Test: inhibitors of HIV fusion peptide binding, primary screen, biochemical, uHTS, fluorescence dequenching (AID 1986)

Sequence of Envelope glycoprotein gp160 (Q6QLK5 whole entry, the tested form may be a part): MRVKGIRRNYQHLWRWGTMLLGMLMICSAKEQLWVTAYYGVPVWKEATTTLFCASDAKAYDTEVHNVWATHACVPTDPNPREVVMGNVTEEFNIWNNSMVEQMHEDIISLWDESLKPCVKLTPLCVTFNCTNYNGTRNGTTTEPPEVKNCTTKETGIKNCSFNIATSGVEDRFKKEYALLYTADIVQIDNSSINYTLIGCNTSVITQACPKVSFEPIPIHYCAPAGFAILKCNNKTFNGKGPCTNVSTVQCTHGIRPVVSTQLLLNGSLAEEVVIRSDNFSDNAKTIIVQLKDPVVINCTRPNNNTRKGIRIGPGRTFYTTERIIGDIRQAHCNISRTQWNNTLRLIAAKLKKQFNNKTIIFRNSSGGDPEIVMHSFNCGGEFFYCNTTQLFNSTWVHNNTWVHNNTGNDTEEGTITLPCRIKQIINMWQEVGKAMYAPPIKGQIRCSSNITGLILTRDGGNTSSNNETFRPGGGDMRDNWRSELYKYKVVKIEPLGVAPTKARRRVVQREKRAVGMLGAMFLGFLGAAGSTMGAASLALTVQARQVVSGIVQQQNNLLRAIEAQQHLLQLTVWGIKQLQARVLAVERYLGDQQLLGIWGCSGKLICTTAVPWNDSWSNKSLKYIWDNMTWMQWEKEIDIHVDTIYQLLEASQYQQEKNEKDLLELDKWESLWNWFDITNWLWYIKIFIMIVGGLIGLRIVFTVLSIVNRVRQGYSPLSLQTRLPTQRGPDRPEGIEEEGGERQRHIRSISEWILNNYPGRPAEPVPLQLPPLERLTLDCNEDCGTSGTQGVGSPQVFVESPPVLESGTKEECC

O=C(COc1ccc(Cl)cc1)Nc1cc(NC(=O)COc2ccc(Cl)cc2)cc(C(=O)O)c1
IC50: 26.4 µM (active)

Cc1cc(Cl)ccc1OC(C)C(=O)Nc1ccc(C(=O)Nc2ccccc2C(=O)O)cc1 (centres undefined)
IC50: 13.1 µM (active)

O=C1NN(c2ccccc2)C(=O)/C1=C\c1cccc(OC(=O)c2cccs2)c1
IC50: 33.9 µM (active)

CC1(c2ccccc2)CC(C)(C)N2C(=O)/C(=C3\SC(=S)NC3=O)c3cccc1c32 (centres undefined)
IC50: 83.8 µM (active)
